Series [1] in a line: Percent encapsulation of mRNA in lipid nanoparticles (Quant-iT Ribogreen). The following applies: for % encapsulation mRNA Leptin: Table 2, leptin mRNA in LNP with the cationic lipid. The class given is physicochemical. The method in brief:
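LNPs made by T-junction mixing of ethanolic lipids (cationic lipid:DSPC:cholesterol:PEG lipid 40:10:38:2, N:P 4:1) with mRNA in citrate pH 5.8-6.0, then dialysed against PBS overnight at 4 °C. RiboGreen fluorescence (ex 480/em 520 nm) measured in TE ± 0.75% Triton X-100; encapsulation = (total − free)/total.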

The nature of series [2]: Particle size and PDI of lipid nanoparticles by dynamic light scattering (Malvern Zetasizer). The class given is physicochemical. The text has this: The lipid nanoparticles have a size of about 1 to about 2,500 nm, about 10 to about 1,500 nm, about 20 to about 1,000 nm, in a sub-embodiment about 50 to about 600 nm, in a sub-embodiment about 50 to about 400 nm, in a sub-embodiment about 50 to about 250 nm, and in a sub-embodiment about 50 to about 150 nm. Unless indicated otherwise, all sizes referred to herein are the average sizes (diameters) of the fully formed nanoparticle, as measured by dynamic light scattering on a Malvern Zetasizer. The nanoparticle sample is diluted in phosphate buffered saline (PBS) so that the count rate is approximately 200-400 kcts. The data is presented as a weighted average of the intensity measure.
Unless indicated otherwise, all PDIs referred to herein are the PDI of the fully formed nanoparticle, as measured by dynamic light scattering on a Malvern Zetasizer. The nanoparticle sample was diluted in phosphate buffered saline (PBS) so that the count rate was approximately 200-400 kcts. The data is presented in Table 3 as a weighted average of the intensity measure.
Unless indicated otherwise, all particle size measurements referred to in Table 3 are the Z-average particle size of the fully formed nanoparticle, as measured by dynamic light scattering on a Malvern Zetasizer. The nanoparticle sample was diluted in phosphate buffered saline (PBS) so that the count rate is approximately 200-400 kcts.

Regarding `CCCCCCCCCCCCC(CCOC(=O)CCCCC(COC(=O)CCCCCCC)COC(=O)CCCCCCC)OC(=O)OCCCN(CC)CC` (centres unmarked) [Example 1, 2-(10-dodecyl-3-ethyl-8,14-dioxo-7,9,13-trioxa-3-azaoctadecan-18-yl)propane-1,3-diyl dioctanoate], the “% Encap.” value in series [1] (FLuc mRNA) is 94.7%; in series [1] (Gluc mRNA), 97.3%; in series [1] (hFIX mRNA) it was 94.0%; in series [1] (hLeptin mRNA), 97.1%; in series [1] (mEPO mRNA) it was 95.8%. For the same compound, the “% encapsulation mRNA Leptin” value in series [1] came out at 97.1%. The PDI was determined as 0.100 in series [2] (FLuc mRNA LNP); 0.093 in series [2] (Gluc mRNA LNP); 0.082 in series [2] (hFIX mRNA LNP); 0.138 in series [2] (hLep plasmid LNP); 0.071 in series [2] (hLeptin mRNA LNP); 0.073 in series [2] (mEPO mRNA LNP). The compound further gave a PDI in series [2] (pDNA LNP) of 0.135. Also, the Size in series [2] (FLuc mRNA LNP) came to 108.8 nm; in series [2] (Gluc mRNA LNP), 84.7 nm; in series [2] (hFIX mRNA LNP), 95.5 nm; in series [2] (hLep plasmid LNP), 109.8 nm; in series [2] (hLeptin mRNA LNP), 128.1 nm; in series [2] (mEPO mRNA LNP), 104.1 nm. In series [2] (pDNA LNP), this compound returned a Size of 110 nm.

`CCCCCCCCCCCCC(CCOC(=O)CCCCC(OCCCCCCCC)OCCCCCCCC)OC(=O)OCCCN(CC)CC` (centres unmarked) [Example 16, 3-(((3-(diethylamino)propoxy)carbonyl)oxy)pentadecyl 6,6-bis(octyloxy)hexanoate]: the “% Encap.” value came to 96.8% in series [1] (FLuc mRNA); 97.9% in series [1] (Gluc mRNA); 96.9% in series [1] (hFIX mRNA); 98.1% in series [1] (hLeptin mRNA); 97.9% in series [1] (mEPO mRNA). In addition, the “% encapsulation mRNA Leptin” value in series [1] is 97.7%. The PDI in series [2] (FLuc mRNA LNP) came to 0.145; in series [2] (FVII siRNA LNP), 0.075; in series [2] (Gluc mRNA LNP), 0.145; in series [2] (hFIX mRNA LNP), 0.141; in series [2] (hLep plasmid LNP), 0.155; in series [2] (hLeptin mRNA LNP), 0.103. Further, the PDI in series [2] (mEPO mRNA LNP) was determined as 0.112; in series [2] (pDNA LNP), 0.128. Besides, the Size in series [2] (FLuc mRNA LNP) is 106.7 nm; in series [2] (FVII siRNA LNP), 95.7 nm; in series [2] (Gluc mRNA LNP), 106.7 nm; in series [2] (hFIX mRNA LNP), 102.6 nm; in series [2] (hLep plasmid LNP), 102.6 nm; in series [2] (hLeptin mRNA LNP) it was 122.6 nm. The Size is 83.2 nm in series [2] (mEPO mRNA LNP) and 101.6 nm in series [2] (pDNA LNP).

For the compound `CCCCC/C=C\C/C=C\CCCCCCCC(=O)OCC(COC(=O)CCCCCCC/C=C\C/C=C\CCCCC)OC(=O)CCC(CCCCCCCCCCCC)OC(=O)OCCCN(C)C` (centres unmarked) [Example 80, (9Z,9′Z,12Z,12′Z)-2-((4-(((3-(dimethylamino)propoxy)carbonyl)oxy)hexadecanoyl)oxy)propane-1,3-diyl bis(octadeca-9,12-dienoate)], the “% Encap.” value came to 85.3% in series [1] (FLuc mRNA) and 96.2% in series [1] (mEPO mRNA). Also, the PDI is on record as 0.085 in series [2] (FLuc mRNA LNP), 0.051 in series [2] (FVII siRNA LNP) and 0.083 in series [2] (mEPO mRNA LNP). The Size in series [2] (FLuc mRNA LNP) is given as 193.5 nm; in series [2] (FVII siRNA LNP) it was 97.3 nm; in series [2] (mEPO mRNA LNP), 166.0 nm.

Regarding `CCCCCCCCCCCCC(CCOC(=O)CCCCC(OCC(CC)CCCC)OCC(CC)CCCC)OC(=O)OCCCN(CC)CC` (centres unmarked) [Example 18, 3-(((3-(diethylamino)propoxy)carbonyl)oxy)pentadecyl 6,6-bis((2-ethylhexyl)oxy)hexanoate], in series [1], the “% encapsulation mRNA Leptin” value is recorded as 97.1%.

For the compound `CCCCC/C=C\C/C=C\CCCCCCCCC(CCC(=O)OC(COC(=O)CCCCCCC)COC(=O)CCCCCCC)OC(=O)OCCCN(C)C` (centres unmarked) [Example 94, 2-(((13Z,16Z)-4-(((3-(dimethylamino)propoxy)carbonyl)oxy)docosa-13,16-dienoyl)oxy)propane-1,3-diyl dioctanoate], the “% Encap.” value is reported as 93.7% in series [1] (FLuc mRNA); 95.9% in series [1] (Gluc mRNA); 96.9% in series [1] (hFIX mRNA); 98.1% in series [1] (hLeptin mRNA); 96.4% in series [1] (mEPO mRNA). Besides, in series [1], the “% encapsulation mRNA Leptin” value is on record as 98.1%. Also, the PDI came to 0.093 in series [2] (FLuc mRNA LNP); 0.073 in series [2] (FVII siRNA LNP); 0.113 in series [2] (Gluc mRNA LNP); 0.079 in series [2] (hFIX mRNA LNP); 0.153 in series [2] (hLep plasmid LNP); 0.101 in series [2] (hLeptin mRNA LNP). Also, the PDI in series [2] (mEPO mRNA LNP) is 0.099; in series [2] (pDNA LNP) it was 0.152. Also, the Size in series [2] (FLuc mRNA LNP) was 129.2 nm; in series [2] (FVII siRNA LNP), 122.6 nm; in series [2] (Gluc mRNA LNP), 76.9 nm; in series [2] (hFIX mRNA LNP), 148.3 nm; in series [2] (hLep plasmid LNP), 109.8 nm; in series [2] (hLeptin mRNA LNP) it was 119.1 nm. The Size was 108.5 nm in series [2] (mEPO mRNA LNP) and 123.5 nm in series [2] (pDNA LNP).

As for `CCCCCCCCCC(=O)OCCC(CC(CCCCCCCC)CCCCCCCC)OC(=O)OCCCN(C)C` (centres unmarked) [Example 70, 3-(((3-(dimethylamino)propoxy)carbonyl)oxy)-5-octyltridecyl decanoate], in series [1], the “% encapsulation mRNA Leptin” value was 98.3%.

Values taken from US11013696B2, “Lipids and lipid compositions for the delivery of active agents” (Novartis AG, priority 2013, dated 2021).
